Experimental data from US20140378416A1, “SILYL-CONTAINING HETEROCYCLIC COMPOUNDS AND METHODS OF USE THEREOF FOR THE TREATMENT OF VIRAL DISEASES” (priority 2011, published 2014).
Read-outs that look alike come from different tables or passages of the source.

Experiments:
HCV replicon 1a = test: Cell-based HCV replicon assay (TaqMan), genotype 1a replicon; conditions: HCV 1a replicon cells, replicon RNA by TaqMan on day 3, EC90 = concentration for ΔCT=3.2 over baseline
Protocol: (§1) Measurement of inhibition by compounds of the present invention was performed using the HCV replicon system. Several different replicons encoding different HCV genotypes or mutations were used. In addition, potency measurements were made using different formats of the replicon assay, including different ways of measurements and different plating formats. See Jan M. Vrolijk et al., A replicons-based bioassay for the measurement of interferons in patients with chronic hepatitis C, 110 J. VIROLOGICAL METHODS 201 (2003); Steven S. Carroll et al., Inhibition of Hepatitis C Virus RNA Replication by 2′-Modified Nucleoside Analogs, 278(14) J. BIOLOGICAL CHEMISTRY 11979 (2003). However, the underlying principles are common to all of these determinations, and are outlined below.
(§2) Compounds of the present invention were assayed for cell-based anti-HCV activity using the following protocol. Replicon cells were seeded at 5000 cells/well in 96-well collagen I-coated Nunc plates in the presence of the test compound. Various concentrations of test compound, typically in 10 serial 2-fold dilutions, were added to the assay mixture, with the starting concentration ranging from 250 μM to 1 μM. The final concentration of DMSO was 0.5%, fetal bovine serum was 5%, in the assay media. Cells were harvested on day 3 by the addition of 1× cell lysis buffer (Ambion cat #8721). The replicon RNA level was measured using real time PCR (TaqMan® assay). The amplicon was located in 5B. The PCR primers were: 5B.2F, ATGGACAGGCGCCCTGA (SEQ. ID NO. 1); 5B.2R, […] (SEQ. ID NO. 2); the probe sequence was FAM-labeled CACGCCATGCGCTGCGG (SEQ. ID NO. 3). GAPDH RNA was used as endogenous control and was amplified in the same reaction as NS5B (multiplex PCR) using primers and VIC-labeled probe recommended by the manufacturer (PE Applied Biosystem). The real-time […] reactions were run on ABI PRISM 7900HT Sequence Detection System using the following program: 48° C. for 30 minutes, 95° C. for 10 minutes, 40 cycles of 95° C. for 15 sec, 60° C. for 1 minute. The ACT values (CT5B-CTGAPDH) were plotted against the concentration of test compound and fitted to the sigmoid dose-response model using XLfit4 (MDL). EC50 was defined as the concentration of inhibitor necessary to achieve ΔCT=1 over the projected baseline; EC90 the concentration necessary to achieve ΔCT=3.2 over the baseline. Alternatively, to quantitate the absolute amount of replicon RNA, a standard curve was established by including serially diluted T7 transcripts of replicon RNA in the Taqman assay. All TaqMan® reagents were from PE Applied Biosystems. Such an assay procedure was described in detail in e.g. Malcolm et al., Antimicrobial Agents and Chemotherapy 50: 1013-1020 (2006).
(§3) HCV replicon EC50 assay data for various replicons and mutants was calculated for selected compounds of the present invention using this method and is provided in the tables above herein.

HCV replicon 1b = test: Cell-based HCV replicon assay (TaqMan), genotype 1b replicon; conditions: HCV 1b replicon cells, replicon RNA by TaqMan on day 3, EC90 = concentration for ΔCT=3.2 over baseline
Protocol: as §1, §2, §3

HCV replicon 1a Y93H = test: Cell-based HCV replicon assay (TaqMan), genotype 1a Y93H mutant replicon; conditions: EC90 = concentration for ΔCT=3.2 over baseline
Protocol: as §1, §2, §3

HCV replicon 2b = test: Cell-based HCV replicon assay (TaqMan), genotype 2b replicon; conditions: EC90 = concentration for ΔCT=3.2 over baseline
Protocol: as §1, §2, §3

[1] = Hepatitis C virus, 72 h, read-out: 1a Y93H EC90, HCV 1a Y93H mutant replicon cells, replicon RNA by TaqMan on day 3
[2] = Hepatitis C virus, 72 h, read-out: 2b EC90, HCV 2b replicon cells, replicon RNA by TaqMan on day 3

SMILES	EC90 (HCV replicon 1a)	EC90 (HCV replicon 1b)	EC90 (HCV replicon 1a Y93H; read-out: 1a Y93H EC90, HCV 1a Y93H mutant replicon cells, replicon RNA by TaqMan on day 3)	EC90 (HCV replicon 2b; read-out: 2b EC90, HCV 2b replicon cells, replicon RNA by TaqMan on day 3)	EC90 (HCV replicon 1a; Hepatitis C virus, 72 h)	EC90 (HCV replicon 1b; Hepatitis C virus, 72 h)	EC90 (HCV replicon 1a Y93H; [1])	EC90 (HCV replicon 2b; [2])
CC[C@H](C)[C@H](NC(=O)OC)C(=O)N1CCC[C@H]1c1ncc(-c2ccc(-c3ccc(-c4cnc([C@@H]5C[Si](C)(C)CN5C(=O)[C@@H](NC(=O)OC)[C@@H](C)CC)[nH]4)cc3)cc2)[nH]1 [Compound 30]	1.33 nM	7.63 nM	610 nM	248 nM	–	–	–	–
COC(=O)N[C@H](C(=O)N1C[C@H](F)C[C@H]1c1ncc(-c2ccc(C#Cc3ccc(-c4cnc([C@@H]5C[Si](C)(C)CN5C(=O)[C@@H](NC(=O)OC)C(C)OC)[nH]4)cc3)cc2)[nH]1)C(C)C (some centres unmarked) [Compound 59]	–	–	–	–	> 1 nM	0.02 nM	> 100 nM	> 100 nM
CCS(=O)(=O)N1CCC(NC(=O)c2ccc(-c3ccc(-c4cnc([C@@H]5C[Si](C)(C)CN5C(=O)[C@@H](NC(=O)OC)C(C)C)[nH]4)cc3)cc2)CC1 [Compound 75]	–	–	–	–	159 nM	0.028 nM	> 1000 nM	> 1000 nM
CCN(CC)[C@@H](C(=O)N1C[Si](C)(C)C[C@H]1c1nc(Cl)c(-c2ccc(-c3ccc(-c4[nH]c([C@@H]5C[C@H]6C[C@H]6N5C(=O)[C@@H](c5ccccc5)N(CC)CC)nc4Cl)cc3)cc2)[nH]1)c1ccccc1 [Compound 55]	–	–	–	–	0.047 nM	0.019 nM	16.4 nM	0.16 nM
COC(=O)N[C@@H](C)C(=O)N1CCC[C@@H]1c1ncc(-c2ccc(-c3ccc(-c4cnc([C@H]5C[Si](C)(C)CN5C(=O)[C@H](C)NC(=O)OC)[nH]4)cc3)cc2)[nH]1 [Compound 18]	–	–	–	–	988 nM	1000 nM	1000 nM	1000 nM
COC(=O)N[C@H](C(=O)N1C[Si](C)(C)C[C@H]1c1nc(Cl)c(-c2ccc(-c3ccc(-c4[nH]c([C@@H]5C[C@H]6C[C@H]6N5C(=O)[C@@H](NC(=O)OC)C5CC5)nc4Cl)cc3)cc2)[nH]1)C1CC1 [Compound 53]	–	–	–	–	0.01 nM	0.01 nM	26.8 nM	11.3 nM
COC(=O)N[C@H](C(=O)N1CCC[C@H]1c1ncc(-c2ccc(-c3ccc(-c4cnc([C@@H]5C[Si](C)(C)CN5C(=O)[C@@H](NC(=O)OC)C5CCCCC5)[nH]4)cc3)cc2)[nH]1)C1CCCCC1 [Compound 34]	–	–	–	–	2.5 nM	0.04 nM	> 1000 nM	648 nM
COC(=O)N[C@H](C(=O)N1CCC[C@H]1C(=O)Nc1n[nH]c2ccc(-c3ccc(-c4cnc([C@@H]5C[Si](C)(C)CN5C(=O)[C@@H](NC(=O)OC)C(C)C)[nH]4)cc3)cc12)C(C)C [Compound 79]	–	–	–	–	> 1 nM	> 1 nM	> 100 nM	> 100 nM
COC(=O)N[C@@H](Cn1ncnn1)C(=O)N1CCC[C@H]1c1ncc(-c2ccc(-c3ccc(-c4cnc([C@@H]5C[Si](C)(C)CN5C(=O)[C@H](Cn5ncnn5)NC(=O)OC)[nH]4)cc3)cc2)[nH]1 [Compound 27]	–	–	–	–	6.11 nM	2.17 nM	1000 nM	138 nM
COC(=O)N[C@H](Cc1c[nH]c2ccccc12)C(=O)N1CCC[C@H]1c1ncc(-c2ccc(-c3ccc(-c4cnc([C@@H]5C[Si](C)(C)CN5C(=O)[C@@H](Cc5c[nH]c6ccccc56)NC(=O)OC)[nH]4)cc3)cc2)[nH]1 [Compound 16]	–	–	–	–	1000 nM	1000 nM	500 nM	1000 nM
COC(=O)N[C@H](C(=O)N1C[C@H](F)C[C@H]1c1ncc(-c2ccc(C#Cc3ccc(-c4cnc([C@@H]5C[Si](C)(C)CN5C(=O)[C@@H](NC(=O)OC)C(C)C)[nH]4)cc3)cc2)[nH]1)C(C)C [Compound 58]	–	–	–	–	> 1 nM	0.03 nM	> 100 nM	> 100 nM
COC(=O)N[C@@H](Cc1cn(C)cn1)C(=O)N1CCC[C@H]1c1ncc(-c2ccc(-c3ccc(-c4cnc([C@@H]5C[Si](C)(C)CN5C(=O)[C@H](Cc5cn(C)cn5)NC(=O)OC)[nH]4)cc3)cc2)[nH]1 [Compound 28]	–	–	–	–	11.9 nM	282 nM	1000 nM	1000 nM
COC(=O)N[C@@H](Cn1cccn1)C(=O)N1CCC[C@H]1c1ncc(-c2ccc(-c3ccc(-c4cnc([C@@H]5C[Si](C)(C)CN5C(=O)[C@H](Cn5cccn5)NC(=O)OC)[nH]4)cc3)cc2)[nH]1 [Compound 29]	–	–	–	–	5.32 nM	139 nM	1000 nM	861 nM
COC(=O)N[C@H](C(=O)N1CCC[C@H]1c1nc(Cl)c(-c2ccc(-c3ccc(-c4[nH]c([C@@H]5C[Si](C)(C)CN5C(=O)[C@@H](NC(=O)OC)C(C)C)nc4Cl)cc3)cc2)[nH]1)C(C)C [Compound 41]	–	–	–	–	0.26 nM	217 nM	189 nM	100 nM
COC(=O)N[C@H](C(=O)N1C[Si](C)(C)C[C@H]1c1nc(Cl)c(-c2ccc(-c3ccc(-c4[nH]c([C@@H]5C[C@H]6C[C@H]6N5C(=O)[C@@H](NC(=O)OC)C(C)C)nc4F)cc3)cc2)[nH]1)C(C)C [Compound 45]	–	–	–	–	0.13 nM	0.017 nM	144 nM	66 nM
COC(=O)N[C@H](C(=O)N1CCC[C@@H]1c1ncc(-c2ccc(-c3ccc(-c4cnc([C@H]5C[Si](C)(C)CN5C(=O)[C@@H](NC(=O)OC)c5ccccc5)[nH]4)cc3)cc2)[nH]1)c1ccccc1 [Compound 19]	–	–	–	–	25.5 nM	11 nM	1000 nM	999 nM
COC(=O)N[C@H](C(=O)N1C[Si](C)(C)C[C@H]1c1ncc(-c2ccc(-c3ccc(-c4ncc([C@@H]5C[C@H]6C[C@H]6N5C(=O)[C@@H](NC(=O)OC)C(C)C)[nH]4)cc3)cc2)[nH]1)C(C)C [Compound 69]	–	–	–	–	0.84 nM	0.019 nM	> 100 nM	371 nM
COC(=O)N[C@H](C(=O)N1CCC[C@H]1c1ncc(-c2ccc(-c3ccc(-c4cnc([C@@H]5C[Si](C)(C)CN5C(=O)[C@@H](NC(=O)OC)[C@@H](C)OC)[nH]4)cc3)cc2)[nH]1)[C@@H](C)OC [Compound 25]	–	–	–	–	0.72 nM	4.77 nM	1000 nM	136 nM
COC(=O)N[C@H](C(=O)N1C[Si](C)(C)C[C@H]1c1ncc(-c2ccc(-c3ccc(-c4cnc([C@@H]5C[C@H]6C[C@H]6N5C(=O)[C@@H](NC(=O)OC)C(C)C)[nH]4)cc3)cc2)[nH]1)C(C)C [Compound 8]	–	–	–	–	0.029 nM	0.002 nM	> 100 nM	249 nM
COC(=O)N[C@@H](Cc1c[nH]c2ccccc12)C(=O)N1CCC[C@H]1c1ncc(-c2ccc(-c3ccc(-c4cnc([C@@H]5C[Si](C)(C)CN5C(=O)[C@H](Cc5c[nH]c6ccccc56)NC(=O)OC)[nH]4)cc3)cc2)[nH]1 [Compound 17]	–	–	–	–	9.36 nM	1000 nM	1000 nM	1000 nM
